Measured values as given in PubChem BioAssay (NCI).
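A five-concentration, 48-hour dose response in 96-well plates underlies each endpoint, interpolated linearly between surrounding concentrations. TGI is the concentration that stops growth completely.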

Experiments:
Assay in all cases: DTP human tumour cell line panel, 48 h
[1] = test system: SNB-19 CNS
[2] = test system: HCT-116 colon
[3] = test system: SF-295 CNS
[4] = test system: SF-268 CNS
[5] = test system: SK-OV-3 ovarian
[6] = test system: SF-539 CNS
[7] = test system: PC-3 prostate
[8] = test system: CAKI-1 renal
[9] = test system: OVCAR-4 ovarian
[10] = test system: UACC-257 melanoma
[11] = test system: A498 renal
[12] = test system: RXF 393 renal
[13] = test system: HOP-92 NSCLC
[14] = test system: NCI-H23 lung
[15] = test system: OVCAR-5 ovarian
[16] = test system: NCI-H460 lung
[17] = test system: COLO 205 colon
[18] = test system: UACC-62 melanoma
[19] = test system: NCI-H226 lung
[20] = test system: K-562 leukemia
[21] = test system: SR leukemia
[22] = test system: MCF7 breast
[23] = test system: A549 NSCLC
[24] = test system: MDA-MB-435
[25] = test system: EKVX NSCLC
[26] = test system: T-47D breast
[27] = test system: NCI/ADR-RES ovarian
[28] = test system: RPMI-8226 leukemia
[29] = test system: CCRF-CEM leukemia
[30] = test system: BT-549 breast
[31] = test system: KM12 colon
[32] = test system: MDA-MB-231 breast
[33] = test system: HCC-2998 colon
[34] = test system: OVCAR-8 ovarian
[35] = test system: SN12C renal
[36] = test system: U251 CNS
[37] = test system: MDA-N
[38] = test system: NCI-H522 lung
[39] = test system: SK-MEL-28 melanoma
[40] = test system: UO-31 renal
[41] = test system: MOLT-4 leukemia
[42] = test system: OVCAR-3 ovarian
[43] = test system: HCT-15 colon
[44] = test system: SNB-75 CNS
[45] = test system: M14 melanoma
[46] = test system: MALME-3M melanoma
[47] = test system: HOP-62 NSCLC
[48] = test system: DU-145 prostate
[49] = test system: ACHN renal
[50] = test system: 786-0 renal
[51] = test system: SK-MEL-5 melanoma
[52] = test system: IGROV1 ovarian
[53] = test system: SW-620 colon
[54] = test system: HL-60(TB) leukemia
[55] = test system: TK-10 renal
[56] = test system: HT29 colon
[57] = test system: LOX IMVI melanoma
[58] = test system: SK-MEL-2 melanoma
[59] = test system: HS 578T breast

Compound `Cc1sc(Nc2ccccc2[N+](=O)[O-])c(C#N)c1C` has a TGI [1] of 61.9 µM, a TGI [2] greater than 100 µM and a TGI [3] greater than 100 µM. For the same compound, the TGI [4] was 61.8 µM, the TGI [5] was greater than 100 µM and the TGI [6] was 68.3 µM. It also gave a TGI [7] greater than 100 µM, a TGI [8] greater than 100 µM and a TGI [9] greater than 100 µM. For the same compound, the TGI [10] was greater than 100 µM, the TGI [11] was greater than 100 µM and the TGI [12] was 57.1 µM. For the same compound, the TGI [13] was 53 µM, the TGI [14] was 44.8 µM and the TGI [15] was greater than 100 µM. For the same compound, the TGI [16] was greater than 100 µM, the TGI [17] was greater than 100 µM and the TGI [18] was greater than 100 µM. The TGI [19] was greater than 100 µM, the TGI [20] was greater than 100 µM and the TGI [21] was greater than 100 µM. The TGI [22] was greater than 100 µM, the TGI [23] was greater than 100 µM and the TGI [24] was greater than 100 µM. For the same compound, the TGI [25] was greater than 100 µM, the TGI [26] was greater than 100 µM and the TGI [27] was 96.6 µM. The TGI [28] was greater than 100 µM, the TGI [29] was greater than 100 µM and the TGI [30] was 57.9 µM. It also gave a TGI [31] greater than 100 µM, a TGI [32] of 65.8 µM and a TGI [33] greater than 100 µM. For the same compound, the TGI [34] was greater than 100 µM, the TGI [35] was greater than 100 µM and the TGI [36] was 62.6 µM. It also gave a TGI [37] greater than 100 µM, a TGI [38] of 20.9 µM and a TGI [39] greater than 100 µM. The TGI [40] was greater than 100 µM, the TGI [41] was greater than 100 µM and the TGI [42] was 61.2 µM. For the same compound, the TGI [43] was greater than 100 µM, the TGI [44] was 39.9 µM and the TGI [45] was greater than 100 µM. For the same compound, the TGI [46] was greater than 100 µM, the TGI [47] was 76.2 µM and the TGI [48] was greater than 100 µM. It also gave a TGI [49] greater than 100 µM and a TGI [50] of 61.7 µM.

Work on `Cc1cc(=O)oc2c(OS(C)(=O)=O)c(OS(C)(=O)=O)ccc12` yielded a TGI [1] greater than 100 µM, a TGI [2] greater than 100 µM and a TGI [3] greater than 100 µM. For the same compound, the TGI [4] was greater than 100 µM, the TGI [6] was greater than 100 µM and the TGI [7] was greater than 100 µM. For the same compound, the TGI [8] was greater than 100 µM, the TGI [9] was greater than 100 µM and the TGI [10] was greater than 100 µM. For the same compound, the TGI [11] was greater than 100 µM, the TGI [13] was greater than 100 µM and the TGI [14] was greater than 100 µM. For the same compound, the TGI [15] was greater than 100 µM, the TGI [16] was greater than 100 µM and the TGI [17] was greater than 100 µM. It also gave a TGI [18] greater than 100 µM, a TGI [19] greater than 100 µM and a TGI [20] greater than 100 µM. For the same compound, the TGI [51] was greater than 100 µM, the TGI [52] was greater than 100 µM and the TGI [53] was greater than 100 µM. It also gave a TGI [21] greater than 100 µM, a TGI [22] greater than 100 µM and a TGI [23] greater than 100 µM. It also gave a TGI [24] greater than 100 µM, a TGI [25] greater than 100 µM and a TGI [27] greater than 100 µM. The TGI [28] was greater than 100 µM, the TGI [29] was greater than 100 µM and the TGI [30] was greater than 100 µM. The TGI [31] was greater than 100 µM, the TGI [54] was greater than 100 µM and the TGI [32] was greater than 100 µM. For the same compound, the TGI [33] was greater than 100 µM, the TGI [34] was greater than 100 µM and the TGI [35] was greater than 100 µM. It also gave a TGI [36] greater than 100 µM, a TGI [37] greater than 100 µM and a TGI [38] greater than 100 µM. The TGI [55] was greater than 100 µM, the TGI [39] was greater than 100 µM and the TGI [56] was greater than 100 µM. For the same compound, the TGI [40] was greater than 100 µM, the TGI [41] was greater than 100 µM and the TGI [42] was greater than 100 µM. For the same compound, the TGI [57] was greater than 100 µM, the TGI [58] was greater than 100 µM and the TGI [59] was greater than 100 µM. It also gave a TGI [43] greater than 100 µM, a TGI [45] greater than 100 µM and a TGI [46] greater than 100 µM. For the same compound, the TGI [47] was greater than 100 µM, the TGI [49] was greater than 100 µM and the TGI [50] was greater than 100 µM.

For `O=c1c2cc(-c3ccccc3)cnc2sn1-c1ccc(Oc2ccccc2)cc1`, the TGI [1] was 54.7 µM, the TGI [2] was greater than 100 µM and the TGI [3] was greater than 100 µM. It also gave a TGI [4] greater than 100 µM, a TGI [5] greater than 100 µM and a TGI [6] greater than 100 µM. The TGI [7] was 52.1 µM, the TGI [8] was greater than 100 µM and the TGI [9] was 51.9 µM. For the same compound, the TGI [10] was greater than 100 µM, the TGI [11] was 78.6 µM and the TGI [12] was 44.6 µM. The TGI [13] was greater than 100 µM, the TGI [14] was greater than 100 µM and the TGI [15] was greater than 100 µM. For the same compound, the TGI [16] was greater than 100 µM, the TGI [17] was greater than 100 µM and the TGI [18] was greater than 100 µM. For the same compound, the TGI [19] was greater than 100 µM, the TGI [20] was greater than 100 µM and the TGI [52] was greater than 100 µM. It also gave a TGI [53] greater than 100 µM, a TGI [21] greater than 100 µM and a TGI [22] greater than 100 µM. For the same compound, the TGI [23] was 53.2 µM, the TGI [24] was greater than 100 µM and the TGI [25] was greater than 100 µM. The TGI [26] was greater than 100 µM, the TGI [27] was 80.1 µM and the TGI [28] was greater than 100 µM. The TGI [29] was 82.9 µM, the TGI [30] was 62.4 µM and the TGI [31] was greater than 100 µM. It also gave a TGI [54] greater than 100 µM, a TGI [32] of 34.9 µM and a TGI [33] greater than 100 µM. It also gave a TGI [34] greater than 100 µM, a TGI [35] of 89.8 µM and a TGI [36] of 78.1 µM. The TGI [37] was greater than 100 µM, the TGI [38] was greater than 100 µM and the TGI [39] was greater than 100 µM. For the same compound, the TGI [56] was 47.6 µM, the TGI [40] was greater than 100 µM and the TGI [41] was greater than 100 µM. It also gave a TGI [42] greater than 100 µM, a TGI [58] greater than 100 µM and a TGI [43] greater than 100 µM. The TGI [44] was 75.9 µM, the TGI [45] was greater than 100 µM and the TGI [46] was greater than 100 µM. It also gave a TGI [47] of 56.8 µM, a TGI [48] greater than 100 µM and a TGI [49] greater than 100 µM. It also gave a TGI [50] of 36.4 µM.

`COc1cc2c(cc1OC)C1Cc3cc(OC)c(OC)cc3C(C2)O1` showed a TGI [1] greater than 100 µM, a TGI [2] greater than 100 µM and a TGI [3] greater than 100 µM. It also gave a TGI [4] greater than 100 µM, a TGI [5] greater than 100 µM and a TGI [6] greater than 100 µM. It also gave a TGI [7] greater than 100 µM, a TGI [8] greater than 100 µM and a TGI [9] greater than 100 µM. For the same compound, the TGI [10] was greater than 100 µM, the TGI [12] was greater than 100 µM and the TGI [13] was greater than 100 µM. For the same compound, the TGI [14] was greater than 100 µM, the TGI [15] was greater than 100 µM and the TGI [16] was greater than 100 µM. It also gave a TGI [17] greater than 100 µM, a TGI [18] greater than 100 µM and a TGI [19] greater than 100 µM. The TGI [20] was greater than 100 µM, the TGI [52] was greater than 100 µM and the TGI [53] was greater than 100 µM. The TGI [22] was greater than 100 µM, the TGI [23] was greater than 100 µM and the TGI [24] was greater than 100 µM. The TGI [25] was greater than 100 µM, the TGI [26] was greater than 100 µM and the TGI [27] was greater than 100 µM. It also gave a TGI [28] greater than 100 µM, a TGI [29] greater than 100 µM and a TGI [30] greater than 100 µM. It also gave a TGI [31] greater than 100 µM, a TGI [32] greater than 100 µM and a TGI [33] greater than 100 µM. It also gave a TGI [34] greater than 100 µM, a TGI [35] greater than 100 µM and a TGI [36] greater than 100 µM. It also gave a TGI [37] greater than 100 µM, a TGI [55] greater than 100 µM and a TGI [39] greater than 100 µM. It also gave a TGI [56] greater than 100 µM, a TGI [40] greater than 100 µM and a TGI [41] greater than 100 µM. The TGI [42] was greater than 100 µM, the TGI [57] was greater than 100 µM and the TGI [58] was greater than 100 µM. The TGI [44] was greater than 100 µM, the TGI [45] was greater than 100 µM and the TGI [47] was greater than 100 µM. It also gave a TGI [48] greater than 100 µM and a TGI [49] greater than 100 µM.
